This is an account of results in ChEMBL document CHEMBL4507291 (2021).

Assay [1] has as its target 5-hydroxytryptamine receptor 2B (Homo sapiens, UniProt P41595). As to the kind of experiment: Inhibition of Serotonin (5-Hydroxytryptamine) 5-HT2B at compound concentration of 10.0 uM in the Eurofins-Panlabs radioligand binding assay (Eurofins_assay_271700). Also on record: ligand concentration 1.2 nM, non-specific ligand with concentration 10 uM Serotonin (5-HT), incubation time 60 min, incubation temperature 37 C.

For assay [2], the target named is Bone morphogenetic protein receptor type-1A (Homo sapiens) (UniProt P36894). As to the kind of experiment: BMPR1A (ALK3) Kinase screen. The following applies: Compound concentration 1.0 uM.
Sequence of Bone morphogenetic protein receptor type-1A (Homo sapiens) (P36894 whole entry): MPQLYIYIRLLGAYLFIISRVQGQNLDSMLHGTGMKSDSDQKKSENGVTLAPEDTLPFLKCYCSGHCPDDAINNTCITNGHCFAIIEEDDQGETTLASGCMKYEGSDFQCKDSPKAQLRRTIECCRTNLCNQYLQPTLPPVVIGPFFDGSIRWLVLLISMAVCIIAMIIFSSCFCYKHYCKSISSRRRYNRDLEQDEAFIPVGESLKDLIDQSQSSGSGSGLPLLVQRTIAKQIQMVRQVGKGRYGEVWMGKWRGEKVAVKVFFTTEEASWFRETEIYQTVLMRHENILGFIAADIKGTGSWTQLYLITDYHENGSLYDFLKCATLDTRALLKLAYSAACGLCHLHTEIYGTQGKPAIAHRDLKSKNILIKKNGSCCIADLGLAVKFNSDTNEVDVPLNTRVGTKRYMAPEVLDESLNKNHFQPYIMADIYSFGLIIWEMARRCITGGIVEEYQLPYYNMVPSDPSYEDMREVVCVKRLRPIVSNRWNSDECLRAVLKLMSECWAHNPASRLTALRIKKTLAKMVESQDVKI
Assay [3] has as its target Calcium/calmodulin-dependent protein kinase type II subunit delta (Homo sapiens) (UniProt Q13557). As to the kind of experiment: CAMK2D (CaMKII delta) Kinase screen. The following applies: Compound concentration 1.0 uM.
Assay [4] deals with Casein kinase I isoform epsilon (Homo sapiens) (UniProt P49674). As to the kind of experiment: CSNK1E (CK1 epsilon) Kinase screen. The following applies: Compound concentration 1.0 uM.
Sequence of Casein kinase I isoform epsilon (Homo sapiens) (P49674 whole entry, looked up, canonical isoform): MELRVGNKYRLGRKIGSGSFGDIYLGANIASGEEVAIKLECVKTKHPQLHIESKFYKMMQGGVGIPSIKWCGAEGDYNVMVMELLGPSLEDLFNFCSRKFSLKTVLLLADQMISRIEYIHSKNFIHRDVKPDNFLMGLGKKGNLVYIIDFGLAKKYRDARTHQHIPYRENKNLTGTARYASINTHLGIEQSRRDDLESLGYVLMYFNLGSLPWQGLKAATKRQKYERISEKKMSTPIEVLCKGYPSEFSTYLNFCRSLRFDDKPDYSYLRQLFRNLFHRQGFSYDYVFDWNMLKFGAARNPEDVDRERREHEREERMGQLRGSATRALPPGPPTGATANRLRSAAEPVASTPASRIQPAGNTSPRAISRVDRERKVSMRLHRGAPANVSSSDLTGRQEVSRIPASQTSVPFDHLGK
Assay [5] has as its target T1, Myotonin-protein kinase (Homo sapiens) (UniProt Q09013).
T1 sequence (whole entry): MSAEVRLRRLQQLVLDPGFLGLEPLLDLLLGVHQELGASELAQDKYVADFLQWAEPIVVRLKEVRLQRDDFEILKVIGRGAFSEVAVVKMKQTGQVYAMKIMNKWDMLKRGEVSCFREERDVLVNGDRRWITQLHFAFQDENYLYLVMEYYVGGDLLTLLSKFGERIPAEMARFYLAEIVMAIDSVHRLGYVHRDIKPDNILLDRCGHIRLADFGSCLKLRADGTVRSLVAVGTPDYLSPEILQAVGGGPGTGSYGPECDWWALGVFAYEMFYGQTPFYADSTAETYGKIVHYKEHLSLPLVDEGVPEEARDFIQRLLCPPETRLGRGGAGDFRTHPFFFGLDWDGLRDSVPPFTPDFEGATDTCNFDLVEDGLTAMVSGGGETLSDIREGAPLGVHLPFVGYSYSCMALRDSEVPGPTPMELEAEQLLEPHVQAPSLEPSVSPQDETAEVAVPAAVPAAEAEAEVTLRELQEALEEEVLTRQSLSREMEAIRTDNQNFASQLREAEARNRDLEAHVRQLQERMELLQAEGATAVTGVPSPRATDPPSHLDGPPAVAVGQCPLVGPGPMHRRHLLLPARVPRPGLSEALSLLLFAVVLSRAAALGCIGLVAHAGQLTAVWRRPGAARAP
As to the kind of experiment: DMPK Kinase screen. The following applies: Compound concentration 1.0 uM.

The target of assay [6] is Homeodomain-interacting protein kinase 1 (Homo sapiens) (UniProt Q86Z02). As to the kind of experiment: HIPK1 (Myak) Kinase screen. The following applies: Compound concentration 1.0 uM.
Sequence of Homeodomain-interacting protein kinase 1 (Homo sapiens) (Q86Z02 whole entry, looked up): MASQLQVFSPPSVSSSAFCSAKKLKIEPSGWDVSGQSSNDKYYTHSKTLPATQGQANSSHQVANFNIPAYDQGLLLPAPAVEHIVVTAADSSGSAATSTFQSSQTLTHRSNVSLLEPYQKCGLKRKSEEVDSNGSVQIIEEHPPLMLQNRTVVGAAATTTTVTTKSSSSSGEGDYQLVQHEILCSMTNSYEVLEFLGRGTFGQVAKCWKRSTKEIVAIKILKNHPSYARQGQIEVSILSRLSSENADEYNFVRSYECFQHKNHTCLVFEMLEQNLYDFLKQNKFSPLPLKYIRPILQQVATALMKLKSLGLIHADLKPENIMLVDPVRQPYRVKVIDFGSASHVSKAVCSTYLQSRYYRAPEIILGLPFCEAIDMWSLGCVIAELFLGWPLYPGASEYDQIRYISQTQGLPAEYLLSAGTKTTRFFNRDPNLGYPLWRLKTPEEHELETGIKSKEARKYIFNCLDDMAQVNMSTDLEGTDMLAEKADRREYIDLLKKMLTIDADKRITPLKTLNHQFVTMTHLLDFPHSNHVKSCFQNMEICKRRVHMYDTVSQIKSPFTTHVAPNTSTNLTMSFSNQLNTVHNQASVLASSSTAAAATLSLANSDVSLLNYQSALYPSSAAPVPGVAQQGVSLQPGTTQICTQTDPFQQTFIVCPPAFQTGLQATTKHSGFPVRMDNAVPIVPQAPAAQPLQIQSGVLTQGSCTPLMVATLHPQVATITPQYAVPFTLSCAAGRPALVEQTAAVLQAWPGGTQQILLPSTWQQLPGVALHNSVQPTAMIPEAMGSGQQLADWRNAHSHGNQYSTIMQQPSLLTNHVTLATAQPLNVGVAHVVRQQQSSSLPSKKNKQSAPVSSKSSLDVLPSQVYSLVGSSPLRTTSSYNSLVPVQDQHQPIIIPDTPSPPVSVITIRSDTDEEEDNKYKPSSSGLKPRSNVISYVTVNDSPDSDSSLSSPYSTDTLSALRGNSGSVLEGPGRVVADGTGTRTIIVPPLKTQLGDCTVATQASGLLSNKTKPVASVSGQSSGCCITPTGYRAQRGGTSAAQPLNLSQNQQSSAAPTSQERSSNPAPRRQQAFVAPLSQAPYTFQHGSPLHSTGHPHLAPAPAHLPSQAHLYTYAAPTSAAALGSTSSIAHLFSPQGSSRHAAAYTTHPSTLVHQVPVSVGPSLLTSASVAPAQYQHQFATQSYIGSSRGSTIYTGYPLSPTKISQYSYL
Assay [7] has as its target T2, Dual specificity mitogen-activated protein kinase kinase 6 (Homo sapiens) (UniProt P52564).
T2 sequence (whole entry): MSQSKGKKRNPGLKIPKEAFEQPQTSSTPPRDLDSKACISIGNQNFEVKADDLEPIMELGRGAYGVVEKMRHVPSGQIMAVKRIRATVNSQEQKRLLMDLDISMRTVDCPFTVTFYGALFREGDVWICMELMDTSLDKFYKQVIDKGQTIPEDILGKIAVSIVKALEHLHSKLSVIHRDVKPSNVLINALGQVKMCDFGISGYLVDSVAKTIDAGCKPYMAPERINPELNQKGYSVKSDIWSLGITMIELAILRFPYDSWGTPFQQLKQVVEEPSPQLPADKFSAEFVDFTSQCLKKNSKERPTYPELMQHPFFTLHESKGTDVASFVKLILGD
As to the kind of experiment: MAP2K6 (MKK6) Kinase screen. The following applies: Compound concentration 1.0 uM.

For assay [8], the target named is T3, Mitogen-activated protein kinase kinase kinase 3 (Homo sapiens) (UniProt Q99759).
T3 sequence (whole entry): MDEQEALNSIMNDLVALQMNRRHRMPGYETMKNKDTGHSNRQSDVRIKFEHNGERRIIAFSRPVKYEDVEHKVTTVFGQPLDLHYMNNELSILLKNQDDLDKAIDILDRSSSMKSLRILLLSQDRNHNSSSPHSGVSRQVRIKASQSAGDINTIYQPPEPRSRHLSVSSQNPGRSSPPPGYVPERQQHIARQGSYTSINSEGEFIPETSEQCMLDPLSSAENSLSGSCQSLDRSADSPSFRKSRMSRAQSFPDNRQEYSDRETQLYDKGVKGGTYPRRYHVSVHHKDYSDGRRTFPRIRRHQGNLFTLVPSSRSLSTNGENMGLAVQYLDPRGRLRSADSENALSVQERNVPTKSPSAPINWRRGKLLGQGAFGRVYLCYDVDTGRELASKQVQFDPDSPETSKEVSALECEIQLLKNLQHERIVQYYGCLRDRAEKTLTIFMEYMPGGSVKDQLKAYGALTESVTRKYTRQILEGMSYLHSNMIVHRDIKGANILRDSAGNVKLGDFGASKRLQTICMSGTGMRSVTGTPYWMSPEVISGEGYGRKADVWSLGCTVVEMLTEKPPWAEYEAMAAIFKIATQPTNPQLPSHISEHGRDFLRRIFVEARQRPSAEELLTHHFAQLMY
As to the kind of experiment: MAP3K3 (MEKK3) Kinase screen. The following applies: Compound concentration 1.0 uM.

For assay [9], the target named is Phosphatidylinositol 4-phosphate 3-kinase C2 domain-containing subunit alpha (Homo sapiens) (UniProt O00443). As to the kind of experiment: PIK3C2A (PI3K-C2 alpha) Kinase screen. The following applies: Compound concentration 1.0 uM.
Sequence of Phosphatidylinositol 4-phosphate 3-kinase C2 domain-containing subunit alpha (Homo sapiens) (O00443 whole entry, the tested form may be a part): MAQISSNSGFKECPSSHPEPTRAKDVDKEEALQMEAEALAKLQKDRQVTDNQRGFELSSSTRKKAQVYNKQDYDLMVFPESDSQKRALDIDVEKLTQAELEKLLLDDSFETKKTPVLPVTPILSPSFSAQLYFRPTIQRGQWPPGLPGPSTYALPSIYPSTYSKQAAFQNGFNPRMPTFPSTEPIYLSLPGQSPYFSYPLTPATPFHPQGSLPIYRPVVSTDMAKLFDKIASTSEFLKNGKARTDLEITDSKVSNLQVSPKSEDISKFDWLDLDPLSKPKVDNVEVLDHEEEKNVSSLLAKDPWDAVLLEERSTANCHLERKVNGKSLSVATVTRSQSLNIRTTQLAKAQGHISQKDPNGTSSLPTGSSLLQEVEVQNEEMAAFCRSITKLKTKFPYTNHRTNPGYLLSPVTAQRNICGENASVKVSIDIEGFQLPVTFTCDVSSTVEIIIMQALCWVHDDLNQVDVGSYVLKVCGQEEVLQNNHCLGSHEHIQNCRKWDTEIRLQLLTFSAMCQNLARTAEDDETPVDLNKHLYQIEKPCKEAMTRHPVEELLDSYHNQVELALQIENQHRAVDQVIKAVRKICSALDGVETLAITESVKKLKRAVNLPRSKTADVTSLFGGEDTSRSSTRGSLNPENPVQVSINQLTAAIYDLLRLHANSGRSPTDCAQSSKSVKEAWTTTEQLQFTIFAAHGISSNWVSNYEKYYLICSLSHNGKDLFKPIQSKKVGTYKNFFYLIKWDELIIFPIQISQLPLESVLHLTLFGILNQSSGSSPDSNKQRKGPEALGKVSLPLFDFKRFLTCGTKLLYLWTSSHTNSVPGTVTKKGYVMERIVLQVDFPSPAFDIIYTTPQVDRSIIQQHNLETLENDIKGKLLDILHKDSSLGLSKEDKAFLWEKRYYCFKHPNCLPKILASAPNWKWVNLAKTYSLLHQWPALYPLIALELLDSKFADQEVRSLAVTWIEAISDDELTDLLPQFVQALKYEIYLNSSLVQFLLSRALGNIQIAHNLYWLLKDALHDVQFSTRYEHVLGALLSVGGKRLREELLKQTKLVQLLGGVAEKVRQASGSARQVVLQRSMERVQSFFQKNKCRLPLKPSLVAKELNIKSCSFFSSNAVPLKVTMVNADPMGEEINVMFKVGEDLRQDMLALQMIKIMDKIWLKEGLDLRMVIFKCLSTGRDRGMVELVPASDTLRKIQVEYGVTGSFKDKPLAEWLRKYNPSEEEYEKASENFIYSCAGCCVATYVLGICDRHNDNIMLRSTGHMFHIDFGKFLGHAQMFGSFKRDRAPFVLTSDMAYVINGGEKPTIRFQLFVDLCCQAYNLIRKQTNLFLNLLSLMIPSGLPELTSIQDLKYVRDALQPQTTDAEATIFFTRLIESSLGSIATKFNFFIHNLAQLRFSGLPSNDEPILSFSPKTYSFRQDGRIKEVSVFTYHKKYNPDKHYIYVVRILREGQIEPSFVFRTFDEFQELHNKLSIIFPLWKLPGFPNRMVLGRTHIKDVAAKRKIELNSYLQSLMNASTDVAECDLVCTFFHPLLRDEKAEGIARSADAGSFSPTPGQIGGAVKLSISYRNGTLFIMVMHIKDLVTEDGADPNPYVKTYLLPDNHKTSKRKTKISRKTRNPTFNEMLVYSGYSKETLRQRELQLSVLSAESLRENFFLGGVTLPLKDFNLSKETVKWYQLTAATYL
The target of assay [10] is Protein kinase C theta type (Homo sapiens) (UniProt Q04759). As to the kind of experiment: PRKCQ (PKC theta) Kinase screen. The following applies: Compound concentration 1.0 uM.
Assay [11] concerns the target Serine/threonine-protein kinase 16 (Homo sapiens) (UniProt O75716). As to the kind of experiment: STK16 (PKL12) Kinase screen. The following applies: Compound concentration 1.0 uM.
For assay [12], the target named is MAP/microtubule affinity-regulating kinase 3 (Homo sapiens) (UniProt P27448). As to the kind of experiment: Protein Serine/Threonine Kinase, MARK3 Eurofins-Panlabs enzyme assay. The following applies: Compound concentration 10.0 uM.
Sequence of MAP/microtubule affinity-regulating kinase 3 (Homo sapiens) (P27448 whole entry, looked up): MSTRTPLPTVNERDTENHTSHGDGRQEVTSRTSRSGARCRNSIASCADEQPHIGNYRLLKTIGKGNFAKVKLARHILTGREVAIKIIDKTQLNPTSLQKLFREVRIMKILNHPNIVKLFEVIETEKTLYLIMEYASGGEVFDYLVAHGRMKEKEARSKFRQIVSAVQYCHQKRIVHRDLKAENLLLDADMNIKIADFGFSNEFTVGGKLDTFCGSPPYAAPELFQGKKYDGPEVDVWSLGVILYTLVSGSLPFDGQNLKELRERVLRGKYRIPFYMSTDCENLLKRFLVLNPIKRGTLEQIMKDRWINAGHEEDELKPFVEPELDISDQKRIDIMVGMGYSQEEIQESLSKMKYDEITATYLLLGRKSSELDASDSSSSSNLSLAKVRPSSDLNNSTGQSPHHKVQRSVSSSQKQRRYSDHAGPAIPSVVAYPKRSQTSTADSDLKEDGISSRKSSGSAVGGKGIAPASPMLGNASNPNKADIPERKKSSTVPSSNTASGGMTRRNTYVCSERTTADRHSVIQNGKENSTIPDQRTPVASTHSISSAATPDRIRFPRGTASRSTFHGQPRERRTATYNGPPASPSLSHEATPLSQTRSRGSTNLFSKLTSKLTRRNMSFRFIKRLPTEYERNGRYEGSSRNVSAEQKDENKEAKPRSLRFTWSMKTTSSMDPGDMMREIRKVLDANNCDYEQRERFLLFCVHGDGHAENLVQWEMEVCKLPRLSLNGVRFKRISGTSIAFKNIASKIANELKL
Assay [13] addresses T4, 5-hydroxytryptamine receptor 1A (Homo sapiens) (UniProt P08908).
T4 sequence (whole entry): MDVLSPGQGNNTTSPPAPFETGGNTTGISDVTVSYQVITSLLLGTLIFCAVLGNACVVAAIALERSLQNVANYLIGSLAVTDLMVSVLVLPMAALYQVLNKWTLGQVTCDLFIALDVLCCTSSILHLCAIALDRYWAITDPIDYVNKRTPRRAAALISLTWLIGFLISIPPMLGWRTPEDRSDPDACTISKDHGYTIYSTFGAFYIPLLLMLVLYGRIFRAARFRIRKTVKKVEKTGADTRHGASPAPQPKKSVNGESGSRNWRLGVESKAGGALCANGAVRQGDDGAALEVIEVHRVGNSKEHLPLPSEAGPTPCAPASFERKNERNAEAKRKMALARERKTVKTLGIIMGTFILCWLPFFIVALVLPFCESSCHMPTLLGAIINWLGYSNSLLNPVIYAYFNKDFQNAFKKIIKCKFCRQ
The following applies: Compound concentration 10.0 uM.

Sequence of Calcium/calmodulin-dependent protein kinase type II subunit delta (Homo sapiens) (Q13557 whole entry, canonical isoform): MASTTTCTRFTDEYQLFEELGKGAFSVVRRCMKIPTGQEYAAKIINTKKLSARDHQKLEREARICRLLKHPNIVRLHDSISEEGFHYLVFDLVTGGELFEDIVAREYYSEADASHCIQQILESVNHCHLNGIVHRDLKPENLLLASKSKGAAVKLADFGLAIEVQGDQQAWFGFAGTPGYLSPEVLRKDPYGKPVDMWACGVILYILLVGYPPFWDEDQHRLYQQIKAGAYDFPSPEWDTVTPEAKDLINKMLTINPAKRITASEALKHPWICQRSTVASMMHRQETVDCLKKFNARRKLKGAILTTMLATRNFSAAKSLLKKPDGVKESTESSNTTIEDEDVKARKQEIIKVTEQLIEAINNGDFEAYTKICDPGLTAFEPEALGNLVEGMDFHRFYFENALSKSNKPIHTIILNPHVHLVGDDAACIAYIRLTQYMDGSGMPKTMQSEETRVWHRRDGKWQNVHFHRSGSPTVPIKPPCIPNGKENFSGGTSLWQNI

`C[C@@H]1CN(c2cc(-c3n[nH]c4ccc(OC5(C)CC5)cc34)ncn2)C[C@H](C)O1` [MLi-2] came in with a Ki in assay [1] of 0.75 µM. Also, the inhibition in assay [2] is 0.759%; in assay [3], 23.9%; in assay [4], 8.14%; in [5] it was 5.71%; in assay [6] it was 3.08%; in assay [7] it was -2.67%. Besides, the inhibition in assay [8] was -0.743%; in [9], -0.741%; in assay [10], 2.46%; in assay [11], 2.58%; in assay [12], 11%; in assay [13], -6%.

For orientation: Ki means a dissociation constant, usually derived from enzyme kinetics or from competition with a known ligand. The low end stands for higher affinity, the high end for lower affinity. A word on the inhibition: it is the change of the read-out against control, counted positive when it falls.
